In patent publication US10870102B2, “Radical generating catalyst, method for producing radical, method for producing oxidation reaction product, drug, and drug for agriculture and livestock” (ACENET INC., priority 2015, dated 2020):
“And” between values parts separate entries of the source, which are not always exact repeats. Equal values may be shown once. Read-outs that look alike come from different tables or passages of the source.

Legend:
[1] = Lewis acidity: rate constant of reaction between CoTPP and oxygen in the presence of a Lewis acid; format: physicochemical
[2] = system: Escherichia coli MV1184; assay: MIC/MBC determination, microplate; format: cell-based; conditions: E. coli; 37° C., 24 hours
[3] = system: Staphylococcus aureus; assay: MIC/MBC determination, microplate; format: cell-based; conditions: S. aureus; 37° C., 24 hours

| Molecule | kcat [1] | MIC [2] | further results |
| --- | --- | --- | --- |
| CC(C)(C)CC(C)(C)c1ccc(OCCOCC[N+](C)(C)Cc2ccccc2)cc1.[Cl-] [benzetonium chloride, benzethonium chloride] | 0.24 and 0.24 M^−2 s^−1 |  |  |
| CCCC[N+](CCCC)(CCCC)CCCC.F[P-](F)(F)(F)(F)F [tetrabutylammonium hexafluorophosphate] | >0.1 M^−2 s^−1 |  |  |
| benzalkonium chloride |  |  | kcat ([1]; rate constant of reaction between CoTPP and oxygen in the presence of a Lewis acid, MeCN, saturated O2, room temperature): 0.18 M^−2 s^−1 |
| sodium chlorite [Comp. Ex. 7] |  | 25< ppm |  |
| sodium chlorite [compound 6] |  | 30 ppm | MIC [3]: 40 ppm; MBC [2]: 50 ppm |
